≈ marks a conversion by molar mass, not a printed value. Like-named read-outs stand apart in the source and are kept apart here.
Experiments:
[1] = system: Escherichia coli ATCC 25922; assay: Minimum inhibitory concentration, broth micro-dilution (CLSI), E. coli; type: cell-based; conditions: Escherichia coli, ATCC25922, 22 h, 35° C., 22 hours
[2] = system: Escherichia coli MC4100 harboring the IMP4213 (E. coli IMP); assay: microbe, parasite or virus in culture; type: cell-based; conditions: Escherichia coli, 22 h, read-out: MIC (μg/mL) E. coli IMP, E. coli MC4100 IMP4213, increased outer-membrane permeability; 35° C., 22 hours
Summary of the method: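 Broth micro-dilution per CLSI in cation-adjusted Mueller Hinton Broth with 0.002% Tween-80; E. coli MC4100 carries IMP4213, raising outer-membrane permeability. Compounds tested as 2-fold serial dilutions (10 concentrations) from 4 μg/mL (protocol 2) or 0.5 μg/mL (protocol 3); inoculum OD600 0.0005, 35° C for 22 hours.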

[3] = system: Methicillin Resistant Staphylococcus aureus strain USA 300, NRS384; assay: Minimum inhibitory concentration, broth micro-dilution (CLSI), S. aureus; type: cell-based; conditions: Staphylococcus aureus, MRSA / NRS 384 / USA300, 22 h, 35° C., 22 hours
Summary of the method: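 Colonies grown 20 hours at 35° C were suspended in cation-adjusted Mueller Hinton Broth with 0.002% Tween-80. Cells were then added to 2-fold compound dilutions starting at 4 or 0.5 μg/mL, at OD600 0.0005.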

[4] = biological target: T1, SpsB (Staphylococcus aureus signal peptidase) (Staphylococcus aureus, UniProt P0A070); assay: cell-based; type: biochemical; conditions: SpsB IC50, whole-cell S. aureus (USA300 background, overexpressing SpsB) as SpsB source; fluorogenic peptide substrate, kinetic read 30 min
T1 construct: This assay uses a suspension of Staphylococcus aureus cells as a source of SpsB instead of recombinant SpsB protein; endogenous in cells; host or cells: S. aureus, USA300 background, overexpressing SpsB (whole-cell suspension from frozen pellets)
T1 sequence (P0A070 whole entry): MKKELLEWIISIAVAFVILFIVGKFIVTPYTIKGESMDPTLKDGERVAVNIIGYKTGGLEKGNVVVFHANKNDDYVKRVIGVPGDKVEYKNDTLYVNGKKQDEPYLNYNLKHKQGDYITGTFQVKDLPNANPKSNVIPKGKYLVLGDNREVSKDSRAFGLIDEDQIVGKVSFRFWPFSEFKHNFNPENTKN
Summary of the method: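 Whole S. aureus cells (USA300, overexpressing SpsB) in PBS with MgCl2, CaCl2 and 0.1% Tween-80 served as enzyme source, mixed with 20 μM stock of (Dabcyl)βAla-KPAKAAE(Edans) substrate before use. Fluorescence (ex 340/em 490 nm) read kinetically over 30 min. IC50 from reaction rate versus 11-point inhibitor concentration.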

[5] = E. coli ATCC 25922, read-out: MIC (μg/mL) E. coli
[6] = MRSA USA 300 NRS384, read-out: MIC (μg/mL) S. aureus

Row | Compound | MIC [1, 5] [µg/mL] | MIC [2] [µg/mL] | MIC [3, 6] [µg/mL] | IC50 [4] [pM] | MIC ([1]; read-out: MIC (μg/mL) E. coli, E. coli ATCC 25922) [µg/mL] | MIC ([3]; read-out: MIC (μg/mL) S. aureus, MRSA USA 300 NRS384) [µg/mL]
1 | Cc1cc(-c2ccc(C(F)(F)F)cc2)ccc1C(=O)N[C@@H](CCN)C(=O)N(C)[C@@H]1C(=O)N[C@@H](C)C(=O)N[C@H](C(=O)NCC#N)Cc2ccc(OCCN)c(c2)-c2cc1ccc2OCCN [Compound 143] | 0.44 (≈ 0.489 µM) | 0.018 (≈ 0.02 µM) | 0.047 (≈ 0.0522 µM) | 570 | – | –
2 | Cc1cc(-c2ccc(-c3ccccc3)cc2)ccc1C(=O)N[C@@H](CCN)C(=O)N(C)[C@@H]1C(=O)N[C@@H](C)C(=O)N[C@H](C(=O)NCC#N)Cc2ccc(OCCN)c(c2)-c2cc1ccc2OCCN [Compound 144] | 0.16 (≈ 0.176 µM) | 0.053 (≈ 0.0584 µM) | 0.031 (≈ 0.0341 µM) | 910 | – | –
3 | Cc1cc(-c2ccc(C(C)C)cc2)ccc1C(=O)N[C@@H](CCN)C(=O)N(C)[C@@H]1C(=O)N[C@@H](C)C(=O)N[C@H](C(=O)NCC#N)Cc2ccc(OCCN)c(c2)-c2cc1ccc2OCCN [Compound 145] | 0.16 (≈ 0.183 µM) | 0.012 (≈ 0.0137 µM) | 0.047 (≈ 0.0538 µM) | 590 | – | –
4 | Cc1cc(-c2ccc(CC(C)C)cc2)ccc1C(=O)N[C@@H](CCN)C(=O)N(C)[C@@H]1C(=O)N[C@@H](C)C(=O)N[C@H](C(=O)NCC#N)Cc2ccc(OCCN)c(c2)-c2cc1ccc2OCCN [Compound 146] | < 0.063 | 0.0078 (≈ 0.00878 µM) | 0.047 (≈ 0.0529 µM) | 900 | – | –
5 | C[C@@H]1NC(=O)[C@@H](N(C)C(=O)[C@H](CCN)NC(=O)c2ccc(-c3ccc(Cl)cc3)cc2)c2ccc(OCCN)c(c2)-c2cc(ccc2OCCN)C[C@@H](C(=O)NCC#N)NC1=O [Compound 147] | – | 0.023 (≈ 0.027 µM) | – | 690 | 1.5 (≈ 1.76 µM) | 0.094 (≈ 0.11 µM)
6 | Cc1cc(-c2ccc(Cl)cc2)ccc1C(=O)N[C@@H](CCN)C(=O)N(C)[C@@H]1C(=O)N[C@@H](C)C(=O)N[C@H](C(=O)NCC#N)Cc2ccc(OCCN)c(c2)-c2cc1ccc2OCCN [Compound 148] | 0.88 (≈ 1.02 µM) | 0.0098 (≈ 0.0113 µM) | 0.055 (≈ 0.0635 µM) | 750 | – | –
7 | Cc1cc(-c2ccccc2)ccc1C(=O)N[C@@H](CCN)C(=O)N(C)[C@@H]1C(=O)N[C@@H](C)C(=O)N[C@H](C(=O)NCC#N)Cc2ccc(OCCN)c(c2)-c2cc1ccc2OCCN [Compound 149] | 3 (≈ 3.61 µM) | 0.023 (≈ 0.0276 µM) | 0.19 (≈ 0.228 µM) | 800 | – | –
8 | Cc1cc(-c2ccccc2)ccc1C(=O)N[C@@H](CCCN)C(=O)N(C)[C@@H]1C(=O)N[C@@H](C)C(=O)N[C@H](C(=O)NCC#N)Cc2ccc(OCCN)c(c2)-c2cc1ccc2OCCN [Compound 150] | 4 (≈ 4.73 µM) | 0.063 (≈ 0.0745 µM) | 0.25 (≈ 0.296 µM) | 820 | – | –
9 | CCc1ccc(-c2ccc(C(=O)N[C@@H](CCN)C(=O)N(C)[C@@H]3C(=O)N[C@@H](C)C(=O)N[C@H](C(=O)NCC#N)Cc4ccc(OCCN)c(c4)-c4cc3ccc4OCCN)c(C)c2)cc1 [Compound 151] | 0.31 (≈ 0.36 µM) | 0.012 (≈ 0.014 µM) | 0.031 (≈ 0.036 µM) | 590 | – | –
10 | CCc1ccc(-c2ncc(C(=O)N[C@@H](CCN)C(=O)N(C)[C@@H]3C(=O)N[C@@H](C)C(=O)N[C@H](C(=O)NCC#N)Cc4ccc(OCCN)c(c4)-c4cc3ccc4OCCN)c(C)n2)cc1 [Compound 155] | 0.44 (≈ 0.51 µM) | 0.0098 (≈ 0.0114 µM) | 0.13 (≈ 0.151 µM) | 2500 | – | –
11 | Cc1nc(-c2ccc(CC(C)C)cc2)ncc1C(=O)N[C@@H](CCN)C(=O)N(C)[C@@H]1C(=O)N[C@@H](C)C(=O)N[C@H](C(=O)NCC#N)Cc2ccc(OCCN)c(c2)-c2cc1ccc2OCCN [Compound 157] | 0.098 (≈ 0.11 µM) | 0.0034 (≈ 0.00382 µM) | 0.023 (≈ 0.0258 µM) | 790 | – | –
12 | CCCCCCc1ccc(-c2ncc(C(=O)N[C@@H](CCN)C(=O)N(C)[C@@H]3C(=O)N[C@@H](C)C(=O)N[C@H](C(=O)NCC#N)Cc4ccc(OCCN)c(c4)-c4cc3ccc4OCCN)c(C)n2)cc1 [Compound 159] | 0.13 (≈ 0.142 µM) | < 0.0039 | 0.063 (≈ 0.0686 µM) | 820 | – | –
13 | Cc1nc(-c2ccc(C(C)C)cc2)ncc1C(=O)N[C@@H](CCN)C(=O)N(C)[C@@H]1C(=O)N[C@@H](C)C(=O)N[C@H](C(=O)NCC#N)Cc2ccc(OCCN)c(c2)-c2cc1ccc2OCCN [Compound 160] | 0.13 (≈ 0.148 µM) | 0.0039 (≈ 0.00445 µM) | 0.047 (≈ 0.0537 µM) | 660 | – | –

Reference: patent US20180327367A1, “MACROCYCLIC BROAD SPECTRUM ANTIBIOTICS” (priority 2015, published 2018)
